Experimental data taken from patent US20260124213A1, “STAPHYLOCOCCUS AUREUS PBP4 INHIBITORS AND METHOD OF USE” (UNIVERSITY OF ROCHESTER, priority 2022, published 2026).
“And” between values parts separate entries of the source, which are not always exact repeats. Identical values can stand only once. Like-named read-outs stand apart in the source and are kept apart here.

How the values were obtained:
[1] = test system: MRSA strain ATCC BAA-1556; assay: Broth microdilution antibiotic potentiation; format: cell-based, Staphylococcus aureus; settings: for MIC: Staphylococcus aureus
Description: (§1) Broth Microdilution Method for Antibiotic Potentiation with MRSA Strains. Bacteria were cultured for 6 hours in CAMHB and sub-cultured to 5×10^5 CFU/mL in CAMHB. Subcultures were aliquoted (4 mL) into culture tubes and then inoculated with compound from 10 mM or 100 mM stock in DMSO to the desired concentration. […]. Bacteria treated with antibiotic alone served as the control. Samples from the secondary culture tubes were then aliquoted (200 μL) into the first row of wells of a 96-well microtiter plate. Rows 2-11 were filled (100 μL) with the remaining 4 mL of bacterial subculture containing the adjuvant. Row 12 was filled (100 μL) with uninoculated media. From row 1, 100 μL was transferred to row two and mixed 5-8 times before being transferred to row 3. This procedure was used to serial dilute the rest of the rows through 10. The microtiter plate was then covered in Press 'n Seal and incubated at 37° C.

[2] = test system: MRSA strain AH-2204; assay: Broth microdilution antibiotic potentiation; format: cell-based, Staphylococcus aureus; settings: Staphylococcus aureus, MRSA
Description: as §1

[3] = test system: MRSA strain AH-1263; assay: Broth microdilution antibiotic potentiation; format: cell-based, Staphylococcus aureus; settings: for MIC: Staphylococcus aureus, MRSA
Description: as §1

[4] = test system: recombinant PBP4; assay: BOCILLIN FL labeling of PBP4, gel electrophoresis and fluorescence detection; format: binding; settings: kanamycin 2000 μM or 5000 μM
Description: PBP4 BOCILLIN™ FL Binding Competition Assays. The ability of putative PBP4 inhibitors to impact the active site of recombinant PBP4 was assessed using two previously established BOCILLIN™-FL Penicillin (Penicillin V conjugated to BODIPY fluorescent dye) binding assays. First, fluorescence polarization assays were performed as previously described. Briefly, the indicated amount of the putative PBP4 inhibitor or control antibiotic was incubated with 1 μM recombinant B. subtilis PBP4 or S. aureus PBP2a in potassium phosphate buffer (40 mM K2HPO4 and 10 mM KH2PO4) for 1 hour in black 96-well microtiter plates (Corning Life Sciences®, Corning, NY). […] BOCILLIN™ FL fluorescence polarization was measured at (495nm excitation and 545nm emission) in a SpectraMax® M5 multimode plate reader (Molecular Devices®, San Jose, CA). […] Second, gel electrophoresis and fluorescence detection were used to measure BOCILLIN™ FL labeling of PBP4 treated with the known PBP4 inhibitor cefoxitin (positive control), kanamycin (negative control) or 9314848 (test compound). […] BOCILLIN™ FL labeled PBP4 was imaged at λ=365 nm using a BioRad© Gel Doc EZ™ Imaging system and the gel was then subsequently stained with Bio-safe Coomassie Brilliant Blue stain (BioRad©, Hercules, CA, USA) to measure the amount of protein present in each reaction condition and analyzed using NIH-ImageJ software. […]

[5] = target: recombinant B. subtilis PBP4 (Bacillus subtilis, UniProt P40750); assay: BOCILLIN FL fluorescence polarization binding competition
Chain of recombinant B. subtilis PBP4 (P40750 22-624): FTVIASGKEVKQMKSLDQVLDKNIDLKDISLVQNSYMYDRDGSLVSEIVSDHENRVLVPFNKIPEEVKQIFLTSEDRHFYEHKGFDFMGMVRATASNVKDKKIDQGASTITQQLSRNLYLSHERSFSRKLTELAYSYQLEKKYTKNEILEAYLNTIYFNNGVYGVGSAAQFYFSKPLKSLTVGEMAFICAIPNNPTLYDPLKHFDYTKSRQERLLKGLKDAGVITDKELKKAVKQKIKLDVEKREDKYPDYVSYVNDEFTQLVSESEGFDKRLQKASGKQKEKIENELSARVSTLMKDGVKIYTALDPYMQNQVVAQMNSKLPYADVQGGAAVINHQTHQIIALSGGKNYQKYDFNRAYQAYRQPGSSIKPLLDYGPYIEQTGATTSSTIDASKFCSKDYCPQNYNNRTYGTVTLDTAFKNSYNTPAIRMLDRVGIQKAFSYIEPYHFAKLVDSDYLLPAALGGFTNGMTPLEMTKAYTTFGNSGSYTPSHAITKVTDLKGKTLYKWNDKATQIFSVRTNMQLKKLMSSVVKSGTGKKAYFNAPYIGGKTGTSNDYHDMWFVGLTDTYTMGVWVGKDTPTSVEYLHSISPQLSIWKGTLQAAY
Description: PBP4 BOCILLIN™ FL Binding Competition Assays. The ability of putative PBP4 inhibitors to impact the active site of recombinant PBP4 was assessed using two previously established BOCILLIN™-FL Penicillin (Penicillin V conjugated to BODIPY fluorescent dye) binding assays. First, fluorescence polarization assays were performed as previously described. Briefly, the indicated amount of the putative PBP4 inhibitor or control antibiotic was incubated with 1 μM recombinant B. subtilis PBP4 or S. aureus PBP2a in potassium phosphate buffer (40 mM K2HPO4 and 10 mM KH2PO4) for 1 hour in black 96-well microtiter plates (Corning Life Sciences®, Corning, NY). Following incubation, 1 μM (final concentration) BOCILLIN™ FL penicillin was added, and the mixture was incubated for 30 minutes. BOCILLIN™ FL fluorescence polarization was measured at (495nm excitation and 545nm emission) in a SpectraMax® M5 multimode plate reader (Molecular Devices®, San Jose, CA). All assays were repeated at least 8 times, averaged, and values falling outside of 2 standard deviations were considered outliers. Resulting data was plotted as percentage BOCILLIN™ FL binding inhibition=(T/U)×100; T=FL polarization of ((PBP4+BOCILLIN™ FL)−(PBP4+BOCILLIN™ FL+inhibitor compound)), U=FL polarization of ((PBP4+BOCILLIN™ FL)−(BOCILLIN™ FL)). Second, gel electrophoresis and fluorescence detection were used to measure BOCILLIN™ FL labeling of PBP4 treated with the known PBP4 inhibitor cefoxitin (positive control), kanamycin (negative control) or 9314848 (test compound). Briefly, 1 μM of recombinant PBP4 was mixed with 0, 50, 500, 2000, or 5000 μM 9314848 or control antibiotic in 50 mM phosphate buffer (pH 7.4) and incubated at 37° C. for 30 minutes. Next 40 μM of BOCILLIN™ FL was added to the reaction mixture and incubated for an additional 30 minutes at 37° C. Reactions were stopped by adding 5×SDS-PAGE gel loading dye, heated at 100° C. for 3 minutes and separated by electrophoresis in 12% SDS-PAGE (2 h, 120 Volts). BOCILLIN™ FL labeled PBP4 was imaged at λ=365 nm using a BioRad© Gel Doc EZ™ Imaging system and the gel was then subsequently stained with Bio-safe Coomassie Brilliant Blue stain (BioRad©, Hercules, CA, USA) to measure the amount of protein present in each reaction condition and analyzed using NIH-ImageJ software. The percent BOCILLIN™ FL binding was calculated by first normalizing the protein present in each reaction condition to that of untreated control and subsequently applying each reaction's protein normalization factor to each reaction's fluorescent signal. The percentage BOCILLIN™ FL binding inhibition was then calculated as the normalized band intensity of antibiotic/compound treated sample as compared to control sample (PBP4+BOCILLIN™ FL in the absence of compound).
To more directly evaluate whether 9314848 is likely to affect PBP4 function, the compound's ability to bind recombinant PBP4 was measured using BOCILLIN™ FL fluorescence polarization displacement assays. The premise for the assay is that the fluorescence polarization of the fluorescently labeled β-lactam, penicillin V (BOCILLIN™ FL), will increase upon binding to its cognate target (i.e., PBP4). Further, compounds that bind PBP4 and inhibit its function would impede BOCILLIN™ FL binding thereby allowing assessment of the protein binding affinity of 9314848 using a simple fluorescence reduction assay.

[6] = test system: MRSA strain BAA-1770; assay: Broth microdilution antibiotic potentiation; format: cell-based, Staphylococcus aureus; settings: Staphylococcus aureus, read-out: Oxacillin MIC, no compound (—)
Description: (§2) Broth Microdilution Method for Antibiotic Potentiation with MRSA Strains. Bacteria were cultured for 6 hours in CAMHB and sub-cultured to 5×10^5 CFU/mL in CAMHB. Subcultures were aliquoted (4 mL) into culture tubes and then inoculated with compound from 10 mM or 100 mM stock in DMSO to the desired concentration. […] Bacteria treated with antibiotic alone served as the control. Samples from the secondary culture tubes were then aliquoted (200 μL) into the first row of wells of a 96-well microtiter plate. Rows 2-11 were filled (100 μL) with the remaining 4 mL of bacterial subculture containing the adjuvant. Row 12 was filled (100 μL) with uninoculated media. From row 1, 100 μL was transferred to row two and mixed 5-8 times before being transferred to row 3. This procedure was used to serial dilute the rest of the rows through 10. The microtiter plate was then covered in Press 'n Seal and incubated at 37° C.

[7] = test system: MRSA strain BAA-1685; assay: Broth microdilution antibiotic potentiation; format: cell-based; settings: Staphylococcus aureus, read-out: Oxacillin MIC, no compound (—)
Description: as §1

[8] = test system: MRSA strain 700699; assay: Broth microdilution antibiotic potentiation; format: cell-based; settings: Staphylococcus aureus, read-out: Oxacillin MIC, no compound (—)
Description: as §1

[9] = test system: MRSA strain BAA-811; assay: Broth microdilution antibiotic potentiation; format: cell-based; settings: Staphylococcus aureus, read-out: Oxacillin MIC, no compound (—)
Description: as §1

[10] = test system: MRSA strain BAA-44; assay: Broth microdilution antibiotic potentiation; format: cell-based; settings: Staphylococcus aureus, read-out: Oxacillin MIC, no compound (—)
Description: as §1

[11] = test system: MRSA strain 43300; assay: Broth microdilution antibiotic potentiation; format: cell-based; settings: Staphylococcus aureus, read-out: Oxacillin MIC, no compound (—)
Description: as §2

[12] = test system: MRSA strain 700789; assay: Broth microdilution antibiotic potentiation; format: cell-based; settings: Staphylococcus aureus, read-out: Oxacillin MIC, no compound (—)
Description: as §2

Row | Compound | MIC ([1]; ATCC BAA-1556, read-out: Ampicillin MIC, no compound (—)) | MIC ([2]; AH-2204, read-out: Ampicillin MIC, no compound (—)) | MIC ([3]; AH-1263, read-out: Ampicillin MIC, no compound (—)) | Effect of preincubation on BOCILLIN FL labeling of PBP4 (gel) [4] | Effect of preincubation on BOCILLIN FL binding to PBP4 (fluorescence polarization) [5] | Concentration of maximum BOCILLIN FL binding inhibition ([5]; dose-response 0-50 μM) | MIC [6] | MIC [7] | MIC [8] | MIC [9] | MIC [10] | Oxacillin MIC, no compound (—) ([1]; ATCC BAA-1556) | MIC ([1]; read-out: Oxacillin MIC, no compound (—), ATCC BAA-1556) | MIC ([2]; read-out: Oxacillin MIC, no compound (—), AH-2204) | Oxacillin MIC, no compound (—) ([3]; AH-1263) | MIC ([3]; read-out: Oxacillin MIC, no compound (—), AH-1263) | MIC [11] | MIC [12]
1 | CC1(C)S[C@@H]2[C@H](NC(=O)[C@H](N)c3ccccc3)C(=O)N2[C@H]1C(=O)O [Ampicillin, ampicillin] | 16 µg/mL | 2 µg/mL | 16 µg/mL | reduced the protein's ability to bind the fluorescent substrate in a dose-dependent manner | limited BOCILLIN™ FL binding | 25 to 50 µM | – | – | – | – | – | – | – | – | – | – | – | –
2 | Cc1onc(-c2ccccc2)c1C(=O)N[C@@H]1C(=O)N2[C@@H]1SC(C)(C)[C@@H]2C(=O)O [Oxacillin, oxacillin] | – | – | – | – | – | – | 512 µg/mL | 64 µg/mL | 16 µg/mL | 256 µg/mL | 16 µg/mL | 32 µg/mL and 16 µg/mL | 32 µg/mL | 32 µg/mL | 32 µg/mL | 16 µg/mL | 512 µg/mL | 256 µg/mL
